Experimental data: publication PMC9386913 (Arthritis Research & Therapy, 2022)

Tests used:
LPS-induced TNF = system: LPS-induced TNF; design: method as in PMID 29549113; conditions: mouse model of NOMID, up to 4 weeks after dosing; cited from earlier work
TNF = system: TNF; design: method as in PMID 26904383; conditions: similar assay and clinical study design; no reference printed, BCT197 paper is ref 53; cited from earlier work
THP-1 cells = test: In vitro tachyphylaxis model: daily treatment of THP-1 cells, LPS-stimulated TNF; conditions: up to 14 days, 0.1 or 1 μM CC-99677 or 1 μM p38 inhibitors
[1] = system: c-Jun N-terminal kinase (JNK); conditions: THP-1 cells, macrophages, and synoviocytes; cited from earlier work

Cc1cnc(-c2ccnc(C(C)(C)O)n2)cc1-n1c(C)cc(OCc2ncc(F)cc2F)c(Cl)c1=O [ATI-450]
Inhibition of LPS-induced TNF (LPS-induced TNF): showed inhibition of LPS-induced TNF for up to 4 weeks after dosing

Cc1ccc(C(=O)NC2CC2)cc1-n1ncc(C(=O)c2cccc(C#N)c2)c1N [BCT197]
Sustained TNF inhibition over treatment period (TNF): loss of effect

Cc1ccc(-n2nc(C(C)(C)C)cc2NC(=O)Nc2ccc(OCCN3CCOCC3)c3ccccc23)cc1 [BIRB-796]
LPS-stimulated TNF production under continued daily treatment (THP-1 cells): beginning on day 9, loss of TNF inhibitory effect

CCCNC(=O)c1cn2ncnc(Nc3cc(C(=O)NC4CC4)ccc3C)c2c1C [BMS-582949]
LPS-stimulated TNF production under continued daily treatment (THP-1 cells): beginning on day 9, loss of TNF inhibitory effect

O=C(CO)N1CCC(c2[nH]nc(-c3ccc(Cl)cc3)c2-c2ccncn2)CC1 [CDD-111]
Inhibition of LPS-induced TNF (LPS-induced TNF): did not

C[S+]([O-])c1ccc(-c2nc(-c3ccncc3)c(-c3ccc(F)cc3)[nH]2)cc1 (centres unmarked) [SB203580]
Activation of c-Jun N-terminal kinase (JNK) upon treatment [1]: activation of c-Jun N-terminal kinase (JNK)

C[C@@H]1CN(Cc2ccc(F)cc2)[C@@H](C)CN1C(=O)c1cc2c(C(=O)C(=O)N(C)C)cn(C)c2cc1Cl [SCIO-469]
LPS-stimulated TNF production under continued daily treatment (THP-1 cells): beginning on day 9, loss of TNF inhibitory effect

O=c1ncn2nc(Sc3ccc(F)cc3F)ccc2c1-c1c(Cl)cccc1Cl [VX-745]
Activation of c-Jun N-terminal kinase (JNK) upon treatment [1]: activation of c-Jun N-terminal kinase (JNK)
